# Measurements as given in patent publication US20120041195A1, “Heterocyclic compounds” (FOVEA PHARMACEUTICALS, priority 2009, published 2012).
# How the values were obtained:
# [1] = Solubility in aqueous medium (buffer pH 5); assay type: physicochemical; conditions: acetic acid/KOH buffer pH 5, stirred 24 h at room temperature, HPLC/UV of supernatant
# Method: Solubility of Compounds was determined in aqueous medium using the following procedure.
# Two mg of Compound (2 mg) was added to 200 μl buffer (acetic acid/KOH) solution at pH 5. Solution was then stirred for 24 h at room temperature and then centrifuged 10 min at 16,000 rpm. Corresponding supernatants were analyzed by HPLC and UV detection. Calculation of a given Compound concentration was performed by reporting area under the experimental slope onto a calibration slope obtained separately using DMSO-solubilised Compound at different concentrations.
# Colour of compound = assay type: physicochemical
# [2] = tested on: VEGF-induced blood-retinal barrier breakdown; assay: Inhibition of vascular leakage in a rat model of blood-retinal barrier breakdown; assay type: in vivo; conditions: intravitreal VEGF164 100 ng, 0.58% (5.8 mg/ml buffer pH 5) topical 10 μl six times over 27 h, Evans blue in retina
# Method: We investigated the efficacy of topical administration of compound 5 of the invention in reducing the retinal leakage in a VEGF-induced blood-retinal barrier breakdown in the rat. Rats were treated by a single intravitreal injection of 5 μl (100 ng) recombinant rat VEGF164 (RD systems) into each eye.
# During twenty-seven hours following VEGF injection, 0.58% test compound 5 of the invention (5.8 mg/ml buffer pH 5) and control without compound of the invention were administered six times by topical administration (10 μl) in eyes of sixteen rats.
# Twenty-seven hours after the VEGF challenge, Evans blue dye (45 mg/kg) was injected intravenously and the dye was allowed to circulate during two hours.
# Then, each rat was infused with 0.05M citrate buffer pH 3.5 (37° C.) for 2 minutes to allow clearance of the dye. Immediately after said perfusion, both eyes were enucleated and Evans blue dye was extracted by incubating each retina in formamide (Qaum et al Invest. Ophthalmol. Vis. Sci. 2001, Vol 42, No 10). Afterward, the absorbance was measured with a spectrophotometer at 620 nm.
# Breakdown of the blood-retinal barrier was proportional to the concentration of Evans blue in the retina normalized by Evans blue concentrations in the plasma.
Structure (SMILES),Soiubility (pH 5) in mg/ml [1] [mg/ml],Solubility (pH 5) in % [1] [%],Colour (Colour of compound),reduction of vascular leakage compared to control [2] [%]
"Cl.Oc1ccc(Cl)c(-c2ccn3nc(Nc4ccc(OCCN5CCCC5)cc4)nc3c2)c1 [compound 10, 4-Chloro-3-{2-[4-(2-pyrrolidin-1-yl-ethoxy)-phenylamino]-[1,2,4]triazolo[1,5-a]pyridin-7-yl}-phenol, hydrochloride]",2,0.2,Colourless,
"CN(C)CCOc1cccc(Nc2nc3ccc(-c4cc(O)ccc4Cl)cn3n2)c1 [compound 15, 4-Chloro-3-{2-[3-(2-dimethylamino-ethoxy)-phenylamino]-[1,2,4]triazolo[1,5-a]pyridin-6-yl}-phenol]",0.7,0.07,Colourless,
"CN(C)[C@@H]1CCN(C(=O)COc2ccc(Nc3nc4ccc(-c5cc(O)ccc5Cl)cn4n3)cc2)C1.Cl [compound 6, 2-{4-[6-(2-Chloro-5-hydroxy-phenyl)-[1,2,4]triazolo[1,5-a]pyridin-2-ylamino]-phenoxy}-1-((R)-3-dimethylamino-pyrrolidin-1-yl)-ethanone, hydrochloride]",0.9,0.1,Colourless,
"O=C1N(CCN2CCCC2)CCN1c1ccc(Nc2nc3ccc(-c4cc(O)ccc4Cl)cn3n2)cc1 [compound 7, 1-{4-[6-(2-Chloro-5-hydroxy-phenyl)-[1,2,4]triazolo[1,5-a]pyridin-2-ylamino]-phenyl}-3-(2-pyrrolidin-1-yl-ethyl)-imidazolidin-2-one]",0.22,0.022,Colourless,
"Oc1ccc(Cl)c(-c2ccc3nc(Nc4cccc(OCCN5CCOCC5)c4)nn3c2)c1 [compound 12, 4-Chloro-3-{2-[3-(2-morpholin-4-yl-ethoxy)-phenylamino]-[1,2,4]triazolo[1,5-a]pyridin-6-yl}-phenol]",0.2,0.02,Colourless,
"CN(C)CCOc1ccc(Nc2nc3ccc(-c4cc(O)ccc4Cl)cn3n2)cc1 [compound 14, 4-Chloro-3-{2-[4-(2-dimethylamino-ethoxy)-phenylamino]-[1,2,4]triazolo[1,5-a]pyridin-6-yl}-phenol]",>10,>1,Colourless,
"Cl.Oc1ccc(Cl)c(-c2ccc3nc(Nc4ccc(OCCN5CCCC5)cc4)nn3c2)c1 [compound 5, 4-Chloro-3-{2-[4-(2-pyrrolidin-1-yl-ethoxy)-phenylamino]-[1,2,4]triazolo[1,5-a]pyridin-6-yl}-phenol, hydrochloride]",5.4,0.3,Colourless,71
"Oc1ccc(Cl)c(-c2ccc3nc(Nc4cccc(OCCN5CCCC5)c4)nn3c2)c1 [compound 16, 4-Chloro-3-{2-[3-(2-pyrrolidin-1-yl-ethoxy)-phenylamino]-[1,2,4]triazolo[1,5-a]pyridin-6-yl}-phenol]",0.1,0.01,Colourless,
"Cc1cc(-c2cc(O)ccc2Cl)cn2nc(Nc3ccc(OCCN4CCCC4)cc3)nc12.Cl [compound 9, 4-Chloro-3-{8-methyl-2-[4-(2-pyrrolidin-1-yl-ethoxy)-phenylamino]-[1,2,4]triazolo[1,5-a]pyridin-6-yl}-phenol, hydrochloride]",1,0.1,Colourless,
